Source: PubChem BioAssay AID588568 (The Scripps Research Institute Molecular Screening Center, 2011)
pIC50: −log10 of the molar value. Active and inactive are the calls of the source. The rule behind the calls is not given here.

Molecular target: Melanin-concentrating hormone receptor 1 (Homo sapiens) (UniProt Q99705)
Assay: antagonist activity at MCH receptor 1 – cell-based, fluorescence, set 4, counter-screen for GPR7 antagonist project, dose response (AID 588568)
Settings: MCHR1-expressing cells, fluorescence antagonist assay

pIC50 (run 1)	IC50 (run 1)	Structure (SMILES)	other results
5.22	–	CC(=O)OCc1ccc(Oc2c(Cl)cnn(Cc3cccc4ccccc34)c2=O)cc1	–
5.04	–	COc1ccc(Oc2c(Cl)cnn(C(CO)c3cccc4ccccc34)c2=O)cc1 (centres undefined)	–
5.26	–	COc1ccc(Oc2c(Cl)cnn(Cc3ccc(OC(C)C)c(C#N)c3)c2=O)cc1	–
–	inactive	CCCCCCCn1ncc(Cl)c(Oc2ccc(OC)cc2)c1=O	–
5.09	–	COc1ccc(Oc2c(Cl)c(-c3ccsc3)nn(Cc3ccccc3C)c2=O)cc1	–
5.03	–	CCOc1ccc(Cn2ncc(Cl)c(Oc3ccc(OC)cc3)c2=O)cc1C#N	–
5.29	–	COc1ccc(Oc2c(Cl)cnn(Cc3ccc(C)c(C)c3)c2=O)cc1	–
5.53	–	COc1ccc(Oc2c(Cl)cnn(-c3cccc(Br)c3)c2=O)cc1	–
–	> 20 µM (inactive)	O=C(O)c1ccc(Oc2c(Cl)cnn(Cc3cccc4ccccc34)c2=O)cc1	–
5.05	–	COc1ccc(Oc2c(Cl)cnn(-c3ccc(C)cc3C)c2=O)cc1	–
–	–	COc1ccc(Oc2c(Cl)cnn(CC3CCC3)c2=O)cc1	inhibition (run 1, at 20 µM (top of the series)): inactive
5.65	–	Cc1cc(C)cc(-n2ncc(Cl)c(Oc3ccc(Oc4ccccc4)cc3)c2=O)c1	–
–	inactive	COc1ccc(Oc2c(Cl)cnn(CC3CCCC3)c2=O)cc1	–
5.02	–	COc1ccc(Oc2c(Cl)cnn(-c3ccc(C(F)(F)F)cc3)c2=O)cc1	pIC50 (run 2): 5.01
5.65	–	O=c1c(Oc2ccc(CO)cc2)c(Cl)cnn1Cc1ccc2ccccc2c1	–
–	> 11.5 µM (inactive)	CCN(CC)C(=O)C(c1ccccc1Cl)n1ncc(Cl)c(Oc2ccc(OC)cc2)c1=O (centres undefined)	–
5.67	–	O=C(C1CCCN1Cc1ccc(Cl)c(Cl)c1)N1CCN(c2ccc([N+](=O)[O-])cc2)CC1 (centres undefined)	–
5.29	–	Cc1cccc(Cn2ncc(Oc3ccc(CO)cc3)c(Cl)c2=O)c1	–
–	> 20 µM (inactive)	O=c1c(Oc2ccc(Oc3ccccc3)cc2)c(Cl)cnn1Cc1cccc2ccccc12	–
5.75	–	COc1ccc(Oc2c(Cl)cnn(Cc3ccc(C(F)(F)F)cc3)c2=O)cc1	–
5.48	–	Cc1ccc(CN2CCCCC2C(=O)N2CCN(c3ccc([N+](=O)[O-])cc3)CC2)cc1C (centres undefined)	–
5.85	–	Cc1cc(CN2CCCCC2C(=O)N2CCN(c3ccc([N+](=O)[O-])cc3)CC2)ccc1Cl (centres undefined)	–
–	> 20 µM (inactive)	COc1ccc(Oc2c(Cl)cnn(Cc3ccc(C4CCCCC4)c4ccccc34)c2=O)cc1	–
5.12	–	COc1ccc(Oc2c(Cl)cnn(Cc3ccc4c(c3)OCO4)c2=O)cc1	–

pIC50 (run 1)	IC50 (run 1)	Structure (SMILES)	other results
5.45	–	COc1ccc(Oc2c(Cl)c(C3=CCCCC3)nn(Cc3ccccc3C)c2=O)cc1	–
5.62	–	CCOc1ccc(Oc2c(Cl)cnn(-c3cc(C)cc(C)c3)c2=O)cc1	–
–	> 20 µM (inactive)	COc1ccc(Oc2c(Cl)cnn(C(CCl)c3cccc4ccccc34)c2=O)cc1 (centres undefined)	–
5.41	–	COc1ccc(Oc2c(Cl)c(C)nn(Cc3ccccc3C)c2=O)cc1	–
–	> 20 µM (inactive)	CCCC(=O)OCC(c1cccc2ccccc12)n1ncc(Cl)c(Oc2ccc(OC)cc2)c1=O (centres undefined)	–
5.14	–	COc1ccc(Oc2c(C)c(C)nn(Cc3ccccc3C)c2=O)cc1	–
–	> 20 µM (inactive)	Cc1ccc(-n2ncc(Cl)c(Oc3ccc(O)cc3)c2=O)cc1	–
5.06	–	COc1ccc(Oc2c(Cl)c(-c3ccccc3)nn(Cc3ccccc3C)c2=O)cc1	–
–	> 20 µM (inactive)	COc1ccc(Oc2c(-c3ccc(C)cc3)c(-c3ccc(C)cc3)nn(Cc3ccccc3C)c2=O)cc1	–
5.49	–	COc1ccc(Oc2c(Cl)cnn(Cc3ccc(Cl)cc3)c2=O)cc1	–
–	> 20 µM (inactive)	COc1ccc(Oc2c(C#N)cnn(Cc3ccccc3C)c2=O)cc1	–
–	> 20 µM (inactive)	O=c1c(Oc2ccc(OC(F)(F)F)cc2)c(Cl)cnn1C1c2ccccc2-c2ccccc21	–
5.07	–	COc1ccc(Oc2c(Cl)c(OC)nn(-c3cccc(C)c3)c2=O)cc1	–
–	> 20 µM (inactive)	COC(=O)c1ccc(Oc2c(Cl)cnn(Cc3cccc4ccccc34)c2=O)cc1	–
5.95	–	COc1ccc(Oc2c(Cl)cnn(C3=Nc4cc(Cl)ccc4Oc4ccccc43)c2=O)cc1	–
5.75	–	COc1ccc(Oc2c(Cl)c(Br)nn(Cc3ccccc3C)c2=O)cc1	–
5.58	–	COc1ccc(Oc2c(Cl)cnn(CC(=O)c3ccc(C)cc3C)c2=O)cc1	–
–	inactive	COc1ccc(Oc2c(-c3ccccc3C)c(-c3ccccc3C)nn(Cc3ccccc3C)c2=O)cc1	–
5.29	–	COc1ccc(Oc2c(Cl)cnn(-c3ccc(C4=CCCCC4)cc3)c2=O)cc1	–
5.33	–	CC(C)c1ccc(-n2ncc(Cl)c(Oc3ccc(CO)cc3)c2=O)cc1	–
5.02	–	COc1ccc(Oc2c(Cl)cnn(-c3ccc(C)c(C)c3)c2=O)cc1	pIC50 (run 2): 5.40
–	> 20 µM (inactive)	COc1ccc(Oc2c(Cl)cnn(Cc3ccc(C(C)C)cc3)c2=O)cc1	–
–	> 20 µM (inactive)	COc1ccc(Oc2c(Cl)c(-c3ccc(OC)cc3)nn(Cc3ccccc3C)c2=O)cc1	–
5.05	–	COc1cccc(Oc2c(Cl)cnn(Cc3cccc4ccccc34)c2=O)c1	–

pIC50 (run 1)	IC50 (run 1)	Structure (SMILES)	other results
–	> 20 µM (inactive)	COCc1ccc(Oc2c(Cl)cnn(Cc3cccc4ccccc34)c2=O)cc1	–
5.52	–	Cc1cc(C)cc(Cn2ncc(Cl)c(Oc3ccc(CO)cc3)c2=O)c1	–
5.12	–	COc1ccc(Oc2c(Cl)cnn(Cc3c(Cl)cccc3Cl)c2=O)cc1	–
–	inactive	COc1ccc(Oc2c(Cl)cnn(C(c3ccccc3)c3ccccc3C)c2=O)cc1 (centres undefined)	–
5.19	–	COc1ccc(Oc2c(Cl)cnn(-c3ccc(Br)cc3)c2=O)cc1	–
5.33	–	COc1ccc(Oc2c(Cl)cnn(Cc3cccc(C(F)(F)F)c3)c2=O)cc1	–
–	> 11.5 µM (inactive)	COc1ccc(Oc2c(Cl)cnn(C(C(=O)OC(C)C)c3ccccc3Cl)c2=O)cc1 (centres undefined)	–
5.55	–	COc1ccc(Oc2ccn(-c3ccc(C)cc3)c(=O)c2Cl)cc1	–
–	inactive	CCCCOC(=O)C(c1ccccc1Cl)n1ncc(Cl)c(Oc2ccc(OC)cc2)c1=O (centres undefined)	–
5.01	–	CCCCCc1ccc(-n2ncc(Cl)c(Oc3ccc(OC)cc3)c2=O)cc1	–
5.06	–	COc1ccc(Oc2c(Cl)cnn(C(C)c3cccc4ccccc34)c2=O)cc1 (centres undefined)	–
–	> 20 µM (inactive)	COc1ccc(Oc2c(Cl)cnn(-c3ccc(-c4ccc(C)cc4)cc3)c2=O)cc1	–
5.37	–	COc1ccc(Oc2c(Cl)cnn(Cc3cc(Cl)ccc3Cl)c2=O)cc1	–
–	inactive	COc1ccc(Oc2c(Cl)cnn(-c3ccc(Cl)cc3)c2=O)cc1	–
–	> 11.5 µM (inactive)	Cc1cccc(Cn2ncc(Cl)c(Oc3ccc(CO)cc3)c2=O)c1	–
5.49	–	CCOC(=O)C(c1ccccc1Cl)n1ncc(Cl)c(Oc2ccc(OC)cc2)c1=O (centres undefined)	–
–	> 20 µM (inactive)	COc1cccc(Oc2c(Cl)cnn(-c3cc(C)cc(C)c3)c2=O)c1	–
5.57	–	COc1ccc(Oc2c(Cl)cnn(C3=Nc4ccccc4Oc4ccccc43)c2=O)cc1	–
–	> 20 µM (inactive)	COc1ccc(Oc2c(Cl)cnn(-c3nc4ccccc4c4ccccc34)c2=O)cc1	–
5.63	–	Cc1cc(C)cc(Cn2[nH]cc(Oc3ccc(CO)cc3)c(=O)c2=O)c1	–
5.79	–	O=C(c1cnn(-c2ccc(Cl)cc2)c1C(F)(F)F)N1CCN(c2ccc([N+](=O)[O-])cc2)CC1	–
–	inactive	COc1ccc(Oc2c(Cl)c(-c3ccc(C(F)(F)F)cc3)nn(Cc3ccccc3C)c2=O)cc1	–
5.65	–	Cc1cc(C)cc(-n2ncc(Cl)c(Oc3ccc(CO)cc3)c2=O)c1	–
–	inactive	COc1ccc(Oc2c(Cl)cnn(-c3ccc(OC)cc3)c2=O)cc1	–
